In the NIST ThermoML archive (doi:10.1016/j.jct.2018.12.028):
Numbers after ± are expanded uncertainties.

Legend:
[1] = 101.3 kPa, Liquid; for viscosity: Falling or rolling sphere viscometry; for mass density: Vibrating tube method
[2] = wn = mass fraction of the nth substance listed; conditions: 101.3 kPa, Liquid, w1 = 1; for viscosity: Falling or rolling sphere viscometry; for mass density: Vibrating tube method

NCCO [2-aminoethan-1-ol]
[1]
Conditions	mass density [kg/m3]	viscosity [mPa·s]
293.15 K	1016.7 ± 2	24.23 ± 0.99
298.15 K	1012.8 ± 2	18.94 ± 0.77
303.15 K	1008.8 ± 2	15.04 ± 0.61
308.15 K	1004.9 ± 2	12.14 ± 0.49
313.15 K	1000.9 ± 2	9.938 ± 0.4
318.15 K	996.9 ± 2	8.236 ± 0.34
323.15 K	992.9 ± 2	6.907 ± 0.28
328.15 K	988.8 ± 2	5.855 ± 0.24
333.15 K	984.8 ± 2	5.011 ± 0.2
338.15 K	980.7 ± 2	4.327 ± 0.18
343.15 K	976.6 ± 2	3.766 ± 0.15
348.15 K	972.5 ± 2	3.3 ± 0.13
353.15 K	968.4 ± 2	2.908 ± 0.12

NCCO [2-aminoethan-1-ol] + COCCO
[2]
Conditions	mass density [kg/m3]	viscosity [mPa·s]
293.15 K	1016.7 ± 2	24.23 ± 0.99
298.15 K	1012.8 ± 2	18.94 ± 0.77
303.15 K	1008.8 ± 2	15.04 ± 0.61
308.15 K	1004.9 ± 2	12.14 ± 0.49
313.15 K	1000.9 ± 2	9.938 ± 0.4
318.15 K	996.9 ± 2	8.236 ± 0.34
323.15 K	992.9 ± 2	6.907 ± 0.28
328.15 K	988.8 ± 2	5.855 ± 0.24
333.15 K	984.8 ± 2	5.011 ± 0.2
338.15 K	980.7 ± 2	4.327 ± 0.18
343.15 K	976.6 ± 2	3.766 ± 0.15
348.15 K	972.5 ± 2	3.3 ± 0.13
353.15 K	968.4 ± 2	2.908 ± 0.12

COCCO [2-methoxyethan-1-ol]
[1]
Conditions	mass density [kg/m3]	viscosity [mPa·s]
293.15 K	964.7 ± 2	1.692 ± 0.071
298.15 K	960.1 ± 2	1.527 ± 0.064
303.15 K	955.5 ± 2	1.386 ± 0.058
308.15 K	950.9 ± 2	1.262 ± 0.053
313.15 K	946.2 ± 2	1.155 ± 0.048
318.15 K	941.5 ± 2	1.061 ± 0.044
323.15 K	936.7 ± 2	0.9781 ± 0.041
328.15 K	932 ± 2	0.905 ± 0.037
333.15 K	927.2 ± 2	0.8397 ± 0.035
338.15 K	922.3 ± 2	0.7818 ± 0.032
343.15 K	917.4 ± 2	0.7298 ± 0.03
348.15 K	912.4 ± 2	0.6834 ± 0.028
353.15 K	907.4 ± 2	0.6409 ± 0.026
